{"source": "paper PMC7397056", "about": "“Design, Facile Synthesis and Characterization of Dichloro Substituted Chalcones and Dihydropyrazole Derivatives for Their Antifungal, Antitubercular and Antiproliferative Activities” (Molecules, 2020)"}
{"tested_on": "Mycobacterium tuberculosis H37Rv", "assay": "Antitubercular activity, broth dilution assay (MIC)", "type": "cell-based", "settings": "Mycobacterium tuberculosis, H37RV, 504 h, Middlebrook 7H9 broth, 37 °C, 21 days", "units": {"MIC": "µM"}}
{"smiles": "O=C(/C=C/c1ccccc1F)c1ccc(Cl)c(Cl)c1", "note": "[Compound 4]", "MIC": 84.7}
{"smiles": "O=C(/C=C/c1ccc(Cl)cc1)c1ccc(Cl)c(Cl)c1", "note": "[Compound 5]", "MIC": 80.2}
{"smiles": "O=C(/C=C/c1ccccc1Cl)c1ccc(Cl)c(Cl)c1", "note": "[Compound 6]", "MIC": 20.1}
{"smiles": "O=C(/C=C/c1ccc(F)cc1F)c1ccc(Cl)c(Cl)c1", "note": "[Compound 7, (E)-1-(3,4-dichlorophenyl)-3-(2,4-difluorophenyl)prop-2-en-1-one]", "MIC": 9.96}
{"smiles": "O=C(/C=C/c1ccc(Cl)cc1Cl)c1ccc(Cl)c(Cl)c1", "note": "[Compound 8, (E)-1-(3,4-dichlorophenyl)-3-(2,4-dichlorophenyl)prop-2-en-1-one]", "MIC": 18.1}
{"smiles": "O=C(/C=C/c1ccc(C(F)(F)F)cc1)c1ccc(Cl)c(Cl)c1", "note": "[Compound 9, (E)-1-(3,4-dichlorophenyl)-3-(4-trifluoromethylphenyl)prop-2-en-1-one]", "MIC": 9.03}
{"tested_on": "Mycobacterium tuberculosis H37Rv", "assay": "Antitubercular activity, broth dilution assay (MIC)", "type": "cell-based", "settings": "comparator compound 2 (MIC 343.44 µM)"}
{"smiles": "O=C(/C=C/c1ccc(C(F)(F)F)cc1)c1ccc(Cl)c(Cl)c1", "note": "[Compound 9, (E)-1-(3,4-dichlorophenyl)-3-(4-trifluoromethylphenyl)prop-2-en-1-one]", "fold improvement in antitubercular activity vs. compound 2": "approximately 40 fold"}
{"tested_on": "Mycobacterium tuberculosis H37Rv", "assay": "Antitubercular activity, broth dilution assay (MIC)", "type": "cell-based", "settings": "ratio of MICs vs pyrazinamide (MIC 25.34 µM)", "units": {"fold better activity than the standard pyrazinamide": "fold"}}
{"smiles": "O=C(/C=C/c1ccc(C(F)(F)F)cc1)c1ccc(Cl)c(Cl)c1", "note": "[Compound 9, (E)-1-(3,4-dichlorophenyl)-3-(4-trifluoromethylphenyl)prop-2-en-1-one]", "fold better activity than the standard pyrazinamide": 2.8}
{"tested_on": "prostate cancer cell lines (DU-145)", "assay": "Antiproliferative activity, MTT assay", "type": "cell-based", "settings": "Homo sapiens, 48 h, mean ± SD (n = 3)", "description": "(§1) The antiproliferative activity of the compounds was determined their IC50 values. Methotrexate (Mtx; positive control) was used as a reference standard for comparing the antiproliferative activity of the target compounds. The MTT (3-(4,5-dimethylthiazol-2-yl)-2,5-diphenyl tetrazolium bromide) assay was based on the reduction of the soluble MTT (0.5 mg mL^−1, 100 µL) into a blue-purple formazan product, mainly by the activity of mitochondrial reductase enzymes inside the living cells. The prostate cancer cell lines, DU-145 cells, were cultured in Dulbecco’s Modified Eagle Medium (DMEM) media at 37 °C and humidified at 5% CO2. Stock solutions of the test compounds (17–46) were prepared in 0.1% DMSO followed by dilution with sterile water to obtain the desired final concentrations. Briefly, the cells were placed on 96-well plates at 100 µL total volume with the density of 1 × 10^4 cells per well and were allowed to adhere for 24 h. Then the medium was replaced with fresh media containing different dilutions of the test compounds and incubated for additional 48 h at 37 °C in DMEM with 10% fetal bovine serum (FBS) medium. Subsequently, the medium was replaced with 90 μL of fresh DMEM without FBS. The above wells were treated with 10 μL of MTT reagent (5 mg/mL of stock solution in DMEM without FBS) and incubated at 37 °C for 3–4 h. The formed blue formazan crystals were dissolved in 200 μL of DMSO. The optical density was determined at 570 nm using a micro plate reader. The assay was performed in triplicate for three independent experiments. The same experimentation was also done to confirm that the DMSO (negative control) had no effect in the study. The results had good reproducibility between replicate wells with standard errors below 10%. The antiproliferative activity results measured as IC50 values in µg/mL were converted and expressed in µM. Additionally, the cytotoxic activity of the compounds was also measured employing the same protocol discussed above to assess their toxicity on normal human cell lines (L02).", "units": {"IC50": "µM"}}
{"smiles": "O=C(/C=C/c1ccccc1F)c1ccc(Cl)c(Cl)c1", "note": "[Compound 4]", "IC50": "393 ± 2"}
{"smiles": "O=C(/C=C/c1ccc(Cl)cc1)c1ccc(Cl)c(Cl)c1", "note": "[Compound 5]", "IC50": "147 ± 2"}
{"smiles": "O=C(/C=C/c1ccccc1Cl)c1ccc(Cl)c(Cl)c1", "note": "[Compound 6]", "IC50": "141 ± 2"}
{"smiles": "O=C(/C=C/c1ccc(F)cc1F)c1ccc(Cl)c(Cl)c1", "note": "[Compound 7, (E)-1-(3,4-dichlorophenyl)-3-(2,4-difluorophenyl)prop-2-en-1-one]", "IC50": "31 ± 2"}
{"smiles": "O=C(/C=C/c1ccc(Cl)cc1Cl)c1ccc(Cl)c(Cl)c1", "note": "[Compound 8, (E)-1-(3,4-dichlorophenyl)-3-(2,4-dichlorophenyl)prop-2-en-1-one]", "IC50": "254 ± 2"}
{"smiles": "O=C(/C=C/c1ccc(C(F)(F)F)cc1)c1ccc(Cl)c(Cl)c1", "note": "[Compound 9, (E)-1-(3,4-dichlorophenyl)-3-(4-trifluoromethylphenyl)prop-2-en-1-one]", "IC50": "292 ± 1"}
{"tested_on": "not listed separately", "assay": "Cytotoxic activity on normal cells, MTT assay", "type": "cell-based", "settings": "L02 cells (normal human cell line)", "description": "as §1", "units": {"IC50 at 48 h": "µg/mL"}}
{"smiles": "O=C(/C=C/c1ccccc1F)c1ccc(Cl)c(Cl)c1", "note": "[Compound 4]", "IC50 at 48 h": "> 50"}
{"smiles": "O=C(/C=C/c1ccc(Cl)cc1)c1ccc(Cl)c(Cl)c1", "note": "[Compound 5]", "IC50 at 48 h": "> 50"}
{"smiles": "O=C(/C=C/c1ccccc1Cl)c1ccc(Cl)c(Cl)c1", "note": "[Compound 6]", "IC50 at 48 h": "> 50"}
{"smiles": "O=C(/C=C/c1ccc(F)cc1F)c1ccc(Cl)c(Cl)c1", "note": "[Compound 7, (E)-1-(3,4-dichlorophenyl)-3-(2,4-difluorophenyl)prop-2-en-1-one]", "IC50 at 48 h": "> 50"}
{"smiles": "O=C(/C=C/c1ccc(Cl)cc1Cl)c1ccc(Cl)c(Cl)c1", "note": "[Compound 8, (E)-1-(3,4-dichlorophenyl)-3-(2,4-dichlorophenyl)prop-2-en-1-one]", "IC50 at 48 h": "> 50"}
{"smiles": "O=C(/C=C/c1ccc(C(F)(F)F)cc1)c1ccc(Cl)c(Cl)c1", "note": "[Compound 9, (E)-1-(3,4-dichlorophenyl)-3-(4-trifluoromethylphenyl)prop-2-en-1-one]", "IC50 at 48 h": "> 50"}
{"tested_on": "not given", "assay": "not given", "settings": "not given", "units": {"melting point": "°C"}}
{"smiles": "O=C(/C=C/c1ccc(F)cc1F)c1ccc(Cl)c(Cl)c1", "note": "[Compound 7, (E)-1-(3,4-dichlorophenyl)-3-(2,4-difluorophenyl)prop-2-en-1-one]", "melting point": 265}
{"smiles": "O=C(/C=C/c1ccc(Cl)cc1Cl)c1ccc(Cl)c(Cl)c1", "note": "[Compound 8, (E)-1-(3,4-dichlorophenyl)-3-(2,4-dichlorophenyl)prop-2-en-1-one]", "melting point": 299}
{"smiles": "O=C(/C=C/c1ccc(C(F)(F)F)cc1)c1ccc(Cl)c(Cl)c1", "note": "[Compound 9, (E)-1-(3,4-dichlorophenyl)-3-(4-trifluoromethylphenyl)prop-2-en-1-one]", "melting point": 169}
{"tested_on": "Aspergillus niger (ATCC-6275)", "assay": "Antifungal activity, serial tube dilution method (MIC)", "settings": "Aspergillus niger, ATCC6275, 18 h, read-out: Antifungal activity MIC, A. niger, serial tube dilution, 37 °C, 18 h, average of three", "units": {"MIC": "µM"}}
{"smiles": "O=C(/C=C/c1ccccc1F)c1ccc(Cl)c(Cl)c1", "note": "[Compound 4]", "MIC": 27.1}
{"smiles": "O=C(/C=C/c1ccc(Cl)cc1)c1ccc(Cl)c(Cl)c1", "note": "[Compound 5]", "MIC": 25.7}
{"smiles": "O=C(/C=C/c1ccccc1Cl)c1ccc(Cl)c(Cl)c1", "note": "[Compound 6]", "MIC": 25.7}
{"smiles": "O=C(/C=C/c1ccc(F)cc1F)c1ccc(Cl)c(Cl)c1", "note": "[Compound 7, (E)-1-(3,4-dichlorophenyl)-3-(2,4-difluorophenyl)prop-2-en-1-one]", "MIC": 25.5}
{"smiles": "O=C(/C=C/c1ccc(Cl)cc1Cl)c1ccc(Cl)c(Cl)c1", "note": "[Compound 8, (E)-1-(3,4-dichlorophenyl)-3-(2,4-dichlorophenyl)prop-2-en-1-one]", "MIC": 23.1}
{"smiles": "O=C(/C=C/c1ccc(C(F)(F)F)cc1)c1ccc(Cl)c(Cl)c1", "note": "[Compound 9, (E)-1-(3,4-dichlorophenyl)-3-(4-trifluoromethylphenyl)prop-2-en-1-one]", "MIC": 11.6}
{"tested_on": "Candida tropicalis (ATCC-1369)", "assay": "Antifungal activity, serial tube dilution method (MIC)", "settings": "Candida tropicalis, ATCC1369, 18 h, read-out: Antifungal activity MIC, C. tropicalis, serial tube dilution, 37 °C, 18 h, average of three", "units": {"MIC": "µM"}}
{"smiles": "O=C(/C=C/c1ccccc1F)c1ccc(Cl)c(Cl)c1", "note": "[Compound 4]", "MIC": 54.2}
{"smiles": "O=C(/C=C/c1ccc(Cl)cc1)c1ccc(Cl)c(Cl)c1", "note": "[Compound 5]", "MIC": 51.3}
{"smiles": "O=C(/C=C/c1ccccc1Cl)c1ccc(Cl)c(Cl)c1", "note": "[Compound 6]", "MIC": 51.3}
{"smiles": "O=C(/C=C/c1ccc(F)cc1F)c1ccc(Cl)c(Cl)c1", "note": "[Compound 7, (E)-1-(3,4-dichlorophenyl)-3-(2,4-difluorophenyl)prop-2-en-1-one]", "MIC": 51.1}
{"smiles": "O=C(/C=C/c1ccc(Cl)cc1Cl)c1ccc(Cl)c(Cl)c1", "note": "[Compound 8, (E)-1-(3,4-dichlorophenyl)-3-(2,4-dichlorophenyl)prop-2-en-1-one]", "MIC": 46.2}
{"smiles": "O=C(/C=C/c1ccc(C(F)(F)F)cc1)c1ccc(Cl)c(Cl)c1", "note": "[Compound 9, (E)-1-(3,4-dichlorophenyl)-3-(4-trifluoromethylphenyl)prop-2-en-1-one]", "MIC": 11.6}
